Legend:
[1] = miHA-mismatched allo-HSCT (BALB/c-Ly5.1→DBA/2); type: in vivo, mouse; settings: CD45-SAP conditioning plus daily baricitinib
Method: (§1) To investigate the efficacy of ADCs for allo-HSCT conditioning, two transplant models were used (see e.g., FIG. 2A): a miHA-mismatched BALB/c-Ly5.1→DBA/2 model and a haploidentical CB6F1→B6 (F1-to-parent) model MHC-mismatched for H-2d in the host-versus-graft direction. CD45-SAP was chosen for conditioning in these studies to leverage its lymphodepleting activity to overcome graft rejection.
(§2) Mice were injected with CD45-SAP or cKit-SAP at doses indicated in each figure at 7 days pre-transplant (d-7). In general, 3 mg/kg (75 μg) CD45-SAP, and 0.4 mg/kg or 2 mg/kg (10 or 50 μg, respectively) cKit-SAP were used. On transplant day (d0), mice received 10×10^6 whole donor bone marrow cells via the retroorbital injection.
(§3) CD4^+ and CD8^+ T cell depletion was done using clones GK1.5 and YTS169.4, respectively, and NK cell depletion done using clone PK136. […] All antibodies were administered intraperitoneally at 250 μg per dose following the schema for each experiment.
(§4) Immediately prior to injection, these DMSO stocks were thawed, diluted 1:10 in PBS, and injected at 200 μl/mouse subcutaneously (400 μg daily dose).

[2] = MHC-mismatched haploidentical allo-HSCT (CB6F1→B6); type: in vivo, mouse
Method: as §1, §2, §3, §4
ALZET subcutaneous osmotic pumps (Model 2004) were used to continuously deliver JAK1/2 inhibitors to mice for 28 days at a rate of 0.25 μL/hour (6 μL/day). A vehicle of 50% dimethyl sulfoxide (DMSO)/50% polyethylene glycol 400 (PEG-400) was used for all experiments. JAK1/2 inhibitors were prepared at 2× concentration (133.3 mg/mL) in 100% DMSO then diluted to 1× with an equal volume of PEG-400 (66.7 mg/mL, 400 μg total daily dose). Prepared compounds were then loaded into osmotic pumps per the manufacturer's instructions and surgically implanted in accordance with our IACUC-approved protocol.

[3] = minor- and major-mismatched alloHSCT models, summary statements; type: in vivo, mouse
Excerpt: This example describes the combination of JAK1/JAK2 (JAK1/2) inhibitors and CD45-ADC.

[4] = solubility testing of baricitinib in osmotic pump vehicles; type: physicochemical
[5] = acute effects of four days daily baricitinib on blood and lymphoid organs; type: in vivo, B6 mice
Excerpt: FIG. 16A-FIG. 16G. […] The color scheme in the legend (upper-right) is used throughout the figure. (A and B) Complete blood counts (A) and organ cellularity of spleen and bone marrow (B). (C) Proportions of HSPC subsets in bone marrow. (D) Absolute B, T, and myeloid (Gr1+ and/or CD11b+) cell counts in spleen, blood, and bone marrow. (E) Frequencies of FoxP3+ Tregs (relative to total CD4+ T cells) in spleen, blood and bone marrow. (F and G) Cell surface phenotyping of splenic T cells (F) and APCs (G). Data points and error bars represent mean±SEM, with mice pooled across 3 experiments. For statistical comparison: ns=not significant, * is p<0.05, ** is p<0.01, *** is p<0.001, and **** is p<0.0001.
as §4

[6] = tested on: αCD3-stimulated B6 T cells; assay: αCD3-stimulated CFSE-labeled T cell culture; type: cell-based, mouse; settings: 72 hours, highest tested dose
Method: FIG. 4A-FIG. 4E. […] (B) Donor chimerism in spleen and bone marrow of mice from panel (A). […] (D) Proliferation and viability of cultures in (C). (E) Cytokines present in supernatants collected from cultures described in (C) after 24 hours incubation. For (C-E), data from three technical replicates are shown from one representative of four experiments. For all panels, data points and error bars represent mean±SEM.
For ex vivo stimulation of primary mouse T cells, 1×10^5 T cells purified from spleen and lymph nodes with the EasySep Mouse T cell Isolation Kit (Stem Cell Technologies; Vancouver, BC, Canada) were cultured with 4×10^5 T-depleted splenocytes in 96-well round bottom plates in R10 media with 1 μg/mL αCD3. Supernatants were collected for cytokine analysis after 24 hours incubation, and cultured cells were analyzed for expansion by flow cytometry at 72 hours.
Cytokine concentrations in culture supernatant or mouse plasma were measured with the LegendPLEX Inflammation Panel (13-plex) or the Mouse Th1 Panel (5-plex) per the manufacturer protocols (BioLegend). Quantification was done using LegendPLEX software v8.0 for Windows. If a cytokine concentration was too low to be quantified, the sample was assigned the value of the lower limit of quantitation. […]

[7] = tested on: NK cell-mediated rejection; assay: parent-to-F1 allo-HSCT (B6→CB6F1), NK cell-mediated rejection; type: in vivo, mouse; settings: CD45-SAP plus baricitinib
Method: as §2, §3, §4

[8] = tested on: IL-15-stimulated B6 splenic NK cells; assay: functional assays of cytokine-stimulated splenic NK cells; type: cell-based, mouse
Method: FIG. 5A-FIG. 5H. […] Data points and error bars represent mean±SEM.
Cytokine concentrations in culture supernatant or mouse plasma were measured with the LegendPLEX Inflammation Panel (13-plex) or the Mouse Th1 Panel (5-plex) per the manufacturer protocols (BioLegend). Quantification was done using LegendPLEX software v8.0 for Windows. If a cytokine concentration was too low to be quantified, the sample was assigned the value of the lower limit of quantitation. For intracellular IFNγ analysis of splenic NK cells, cells were cultured in K10 media with or without cytokine stimulation for 15 hours, with 5 μg/mL Brefeldin A (BioLegend) added to each well for the last 2.5 hours. After this incubation period, cells were fixed, saponin-permeabilized, and stained as described above.

[9] = fully MHC-mismatched allo-HSCT (BALB/c→B6), preliminary; type: in vivo, mouse; settings: continuous baricitinib plus CD45-SAP conditioning, preliminary (not shown)
Excerpt: Continued optimization of our conditioning regimens aims to achieve robust, high-level engraftment in fully haploidentical (F1-to-F1) and fully MHC-mismatched allo-HSCT.

[10] = CD45-ADC single dose d-7 plus baricitinib for 3-4 weeks

For CCS(=O)(=O)N1CC(CC#N)(n2cc(-c3ncnc4[nH]ccc34)cn2)C1 [baricitinib], the “overall multilineage donor chimerism of engrafted mice” value [1] was roughly 80%, the overall donor chimerism ([2]; CD45-SAP plus continuously-infused baricitinib (osmotic pump, 400 μg daily)) was greater than 80% and the overall donor chimerism ([2]; CD45-SAP, daily baricitinib and pre-transplant pan-TCD) was greater than 90%. The engraftment rate ([2]; continuous baricitinib plus CD45-SAP) was roughly 70%, the donor chimerism [3, 10] was “up to 90%” and the “share of treated mice achieving the donor chimerism” value [3, 10] was “at least 70 % of the mice”. The “donor chimerism, multilineage alloengraftment” value ([3]; CD45-targeted ADCs combined with baricitinib) was 80-90%, the solubility ([4]; DMSO mixed 1:1 with PEG-400) was “readily soluble” and the solubility after incubation ([4]; DMSO/PEG-400 vehicle, 30-day incubation at 37° C.) was “remained soluble”. For the same compound, the “immunophenotyping of splenic T cell and APC compartments” value ([5]; baricitinib- vs vehicle-treated) was “no differences”, the “B cells in spleens” value ([5]; daily baricitinib 4 days) was “lower frequencies of B cells” and the “CBCs or bone marrow cellularity” value ([5]; daily baricitinib 4 days) was “minimally affected”. For the same compound, the “bone marrow HSPC numbers” value ([5]; daily baricitinib 4 days) was “largely unaffected”, the spleen cellularity ([5]; daily baricitinib 4 days) was “significant reduction” and the “frequencies of long-term HSC and megakaryocyte-erythroid progenitors” value ([5]; daily baricitinib 4 days, bone marrow) was “somewhat lower frequencies”. For the same compound, the “cell death in unstimulated cultures” value [6] was “only subtly increased”, the overall donor chimerism [7] was roughly 60% and the “nonspecific toxicity in unstimulated NK cultures” value [8] was “modest and noted only at the highest baricitinib doses”. The engraftment success [9] was roughly 25%.

— patent US12496303B2, “Conditioning agents for use in allogeneic hematopoietic stem cell transplantation” (priority 2020, dated 2025)
